# Calls of active or inactive are those of the source.
# Assays:
# [1] = cytotoxicity in MITF-independent A375 cells – cell-based, CellTiter-Glo luminescence, dry powder, set 4, counter-screen for MITF inhibitor project, dose response (AID 624364); format: functional; details: A-375;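 also: A375 melanoma cells are MITF independent so this is a counter screen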
# [2] = cytotoxicity in MITF-independent A375 cells – cell-based, CellTiter-Glo luminescence, dry powder, set 9, counter-screen for MITF modulator project, dose response (AID 651591); format: functional; details: A-375
# [3] = MITF Measured in Cell-Based System Using Plate Reader - 2084-01_Inhibitor_Dose_DryPowder_Activity_Set7.; format: functional
# Aminopeptidase N = target: T1, Aminopeptidase N (Plasmodium falciparum FcB1/Columbia, UniProt O96935); experiment: malaria alanyl aminopeptidase activity blockers – biochemical, fluorogenic H-Leu-NHMec substrate, 1536-well (AID 1445); design: species or system Plasmodium falciparum 3D7, 3D7
# T1 sequence (O96935 whole entry): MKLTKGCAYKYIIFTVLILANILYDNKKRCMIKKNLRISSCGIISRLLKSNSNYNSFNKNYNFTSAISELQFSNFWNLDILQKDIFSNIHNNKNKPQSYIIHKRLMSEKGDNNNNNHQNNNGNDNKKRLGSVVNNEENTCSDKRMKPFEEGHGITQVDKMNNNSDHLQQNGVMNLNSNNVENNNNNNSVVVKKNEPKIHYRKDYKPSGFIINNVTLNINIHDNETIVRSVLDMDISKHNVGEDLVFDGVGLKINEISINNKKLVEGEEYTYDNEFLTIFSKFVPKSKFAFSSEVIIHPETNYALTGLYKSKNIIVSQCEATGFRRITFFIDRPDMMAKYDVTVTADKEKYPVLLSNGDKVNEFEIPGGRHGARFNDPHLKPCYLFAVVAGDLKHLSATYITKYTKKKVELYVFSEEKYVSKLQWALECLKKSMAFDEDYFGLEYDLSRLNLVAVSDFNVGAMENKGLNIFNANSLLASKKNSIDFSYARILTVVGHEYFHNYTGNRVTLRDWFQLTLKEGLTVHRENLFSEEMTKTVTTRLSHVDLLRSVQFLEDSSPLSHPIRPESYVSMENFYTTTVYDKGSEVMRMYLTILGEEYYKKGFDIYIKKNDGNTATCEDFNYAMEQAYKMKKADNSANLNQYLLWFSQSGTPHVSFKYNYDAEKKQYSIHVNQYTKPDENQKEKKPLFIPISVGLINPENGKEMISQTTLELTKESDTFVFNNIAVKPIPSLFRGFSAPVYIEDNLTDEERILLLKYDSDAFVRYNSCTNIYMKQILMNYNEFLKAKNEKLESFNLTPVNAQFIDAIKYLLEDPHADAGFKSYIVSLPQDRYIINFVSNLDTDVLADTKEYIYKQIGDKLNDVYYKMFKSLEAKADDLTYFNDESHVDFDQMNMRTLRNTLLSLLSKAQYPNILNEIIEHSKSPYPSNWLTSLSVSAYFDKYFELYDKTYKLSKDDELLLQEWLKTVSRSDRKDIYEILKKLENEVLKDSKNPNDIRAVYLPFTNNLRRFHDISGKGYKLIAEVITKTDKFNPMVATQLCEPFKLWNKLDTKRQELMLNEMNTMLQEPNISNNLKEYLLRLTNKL
# [4] = target: T2, Rac GTPase-activating protein 1 (Homo sapiens, UniProt Q9H0H5); experiment: blockers of MgcRacGAP-driven Rac1 GTP hydrolysis – biochemical, ADP Hunter fluorescence, primary and confirmatory, confirmation (AID 624330); format: functional
# T2 sequence (Q9H0H5 whole entry): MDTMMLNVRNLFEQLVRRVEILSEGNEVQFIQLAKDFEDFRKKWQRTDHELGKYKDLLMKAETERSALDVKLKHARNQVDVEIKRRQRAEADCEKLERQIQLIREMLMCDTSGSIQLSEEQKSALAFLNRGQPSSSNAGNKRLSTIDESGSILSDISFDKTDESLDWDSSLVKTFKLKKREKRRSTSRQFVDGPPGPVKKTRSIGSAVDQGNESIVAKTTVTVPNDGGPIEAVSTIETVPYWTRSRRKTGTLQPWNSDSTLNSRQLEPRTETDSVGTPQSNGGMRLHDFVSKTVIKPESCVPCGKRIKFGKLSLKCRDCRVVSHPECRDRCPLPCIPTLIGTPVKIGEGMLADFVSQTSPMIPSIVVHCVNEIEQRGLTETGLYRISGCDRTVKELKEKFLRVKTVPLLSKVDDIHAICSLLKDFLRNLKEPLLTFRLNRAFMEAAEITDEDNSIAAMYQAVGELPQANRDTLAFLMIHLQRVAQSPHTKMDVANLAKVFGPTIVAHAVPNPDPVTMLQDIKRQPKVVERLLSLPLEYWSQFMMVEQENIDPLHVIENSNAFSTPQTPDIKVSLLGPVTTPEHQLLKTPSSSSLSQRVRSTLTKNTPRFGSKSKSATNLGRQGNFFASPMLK
# Streptococcus = experiment: GAS UMAA2166 growth inhibition – luminescence, BacTiterGlo, counter-screen for streptokinase expression inhibitor project, dose response (AID 1915); format: functional, organism-based;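 also: potency for reduction of bacterial viability or growth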
# CHO-K1 = experiment: Counterscreen for antagonists of the orexin 1 receptor (OX1R; HCRTR1): Homogeneous time resolved fluorescence (HTRF)-based cell-based dose response assay to identify antagonists of the parental CHO-K1 cell line. [Related pubchem assays (depositor defined):AID434989, AID435008, AID463079, AID485270, AID492963, AID492964, AID492965, AID493232, AID504699, AID504701]; format: functional; details: Cricetulus griseus;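 also: potency for inhibition of ATP-stimulated IP1 production as antagonists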
# [5] = target: Tyrosine-protein kinase JAK2 (Homo sapiens, UniProt O60674); format: functional;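 also: JAK2 tested as one member of a kinase panel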
# [6] = target: RAC-gamma serine/threonine-protein kinase (Homo sapiens, UniProt Q9Y243); format: functional
# [7] = target: 5'-AMP-activated protein kinase catalytic subunit alpha-1 (Homo sapiens, UniProt Q13131); format: functional
# [8] = target: Proto-oncogene tyrosine-protein kinase receptor Ret (Homo sapiens, UniProt P07949); format: functional;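 also: measured within a kinome-wide profiling panel, RET as the panel member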
# Aurora kinase A = Aurora kinase A (Homo sapiens, UniProt O14965); format: functional;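 also: value from the Navigating the Kinome kinase panel profiling, panel entry STK6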
# [9] = target: Serine/threonine-protein kinase PAK 1 (Homo sapiens, UniProt Q13153); format: functional
# [10] = target: Tyrosine-protein kinase Blk (Homo sapiens, UniProt P51451); format: functional;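 also: obtained as one member of a kinome-wide kinase assay panel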
# [11] = target: Cyclin-dependent kinase 5 (Homo sapiens, UniProt Q00535); format: functional;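 also: CDK5 measured as one member of a kinase profiling panel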
# [12] = target: Serine/threonine-protein kinase Nek4 (Homo sapiens, UniProt P51957); format: functional
# [13] = target: cAMP-dependent protein kinase catalytic subunit PRKX (Homo sapiens, UniProt P51817); format: functional
# [14] = target: Serine/threonine-protein kinase Nek2 (Homo sapiens, UniProt P51955); format: functional
# [15] = target: Fibroblast growth factor receptor 3 (Homo sapiens, UniProt P22607); format: functional
# Serine/threonine-protein kinase Nek2, sequence (P51955 whole entry): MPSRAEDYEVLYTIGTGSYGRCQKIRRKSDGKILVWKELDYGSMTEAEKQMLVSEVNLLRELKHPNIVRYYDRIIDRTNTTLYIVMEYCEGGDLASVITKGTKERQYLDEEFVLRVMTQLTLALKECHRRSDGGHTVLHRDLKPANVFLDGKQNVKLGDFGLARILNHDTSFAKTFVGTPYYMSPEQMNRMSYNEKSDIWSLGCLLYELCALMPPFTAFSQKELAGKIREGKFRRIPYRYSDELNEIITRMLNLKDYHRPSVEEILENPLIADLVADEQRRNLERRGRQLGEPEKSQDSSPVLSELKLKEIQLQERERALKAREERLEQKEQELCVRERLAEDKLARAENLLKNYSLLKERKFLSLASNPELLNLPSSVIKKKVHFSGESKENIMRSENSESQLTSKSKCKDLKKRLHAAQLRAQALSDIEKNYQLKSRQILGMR
# Serine/threonine-protein kinase PAK 1, sequence (Q13153 whole entry): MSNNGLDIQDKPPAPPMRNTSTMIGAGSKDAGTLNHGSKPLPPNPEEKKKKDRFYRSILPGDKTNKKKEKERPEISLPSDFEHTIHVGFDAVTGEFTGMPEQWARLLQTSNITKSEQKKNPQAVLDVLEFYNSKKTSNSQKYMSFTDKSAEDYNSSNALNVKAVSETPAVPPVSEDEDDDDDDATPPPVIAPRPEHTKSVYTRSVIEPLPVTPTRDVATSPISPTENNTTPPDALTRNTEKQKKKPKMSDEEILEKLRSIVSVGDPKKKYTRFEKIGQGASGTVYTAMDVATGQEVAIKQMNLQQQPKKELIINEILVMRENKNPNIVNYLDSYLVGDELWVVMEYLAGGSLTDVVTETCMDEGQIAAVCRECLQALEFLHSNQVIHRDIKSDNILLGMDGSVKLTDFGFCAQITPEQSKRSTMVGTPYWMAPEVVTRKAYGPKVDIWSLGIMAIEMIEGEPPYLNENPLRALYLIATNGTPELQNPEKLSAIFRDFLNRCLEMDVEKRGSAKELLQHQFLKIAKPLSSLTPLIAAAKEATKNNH
# RAC-gamma serine/threonine-protein kinase, sequence (Q9Y243 whole entry): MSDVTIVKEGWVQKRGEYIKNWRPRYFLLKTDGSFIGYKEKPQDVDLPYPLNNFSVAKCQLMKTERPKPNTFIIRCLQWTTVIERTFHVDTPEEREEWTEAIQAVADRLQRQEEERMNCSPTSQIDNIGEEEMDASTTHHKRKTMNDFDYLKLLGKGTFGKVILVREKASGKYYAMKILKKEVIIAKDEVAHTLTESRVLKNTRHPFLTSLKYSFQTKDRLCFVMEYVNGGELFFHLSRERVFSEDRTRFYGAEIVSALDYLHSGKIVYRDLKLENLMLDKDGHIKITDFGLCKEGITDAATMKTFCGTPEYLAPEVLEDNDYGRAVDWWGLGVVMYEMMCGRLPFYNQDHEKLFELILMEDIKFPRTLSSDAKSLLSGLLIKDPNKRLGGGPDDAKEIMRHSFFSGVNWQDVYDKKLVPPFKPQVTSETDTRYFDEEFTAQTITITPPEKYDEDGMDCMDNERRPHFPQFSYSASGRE
# Aurora kinase A, sequence (O14965 whole entry): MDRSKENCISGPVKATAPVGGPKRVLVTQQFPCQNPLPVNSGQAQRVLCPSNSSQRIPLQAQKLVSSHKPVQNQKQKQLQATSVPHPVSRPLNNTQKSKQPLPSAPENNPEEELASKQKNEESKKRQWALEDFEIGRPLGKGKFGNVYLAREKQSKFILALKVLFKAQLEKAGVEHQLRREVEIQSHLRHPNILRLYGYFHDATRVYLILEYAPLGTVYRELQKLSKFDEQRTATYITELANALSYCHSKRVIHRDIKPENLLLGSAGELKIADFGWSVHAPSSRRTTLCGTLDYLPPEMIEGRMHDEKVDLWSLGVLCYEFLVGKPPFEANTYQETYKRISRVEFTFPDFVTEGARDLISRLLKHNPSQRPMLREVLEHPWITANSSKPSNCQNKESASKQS
# Tyrosine-protein kinase Blk, sequence (P51451 whole entry): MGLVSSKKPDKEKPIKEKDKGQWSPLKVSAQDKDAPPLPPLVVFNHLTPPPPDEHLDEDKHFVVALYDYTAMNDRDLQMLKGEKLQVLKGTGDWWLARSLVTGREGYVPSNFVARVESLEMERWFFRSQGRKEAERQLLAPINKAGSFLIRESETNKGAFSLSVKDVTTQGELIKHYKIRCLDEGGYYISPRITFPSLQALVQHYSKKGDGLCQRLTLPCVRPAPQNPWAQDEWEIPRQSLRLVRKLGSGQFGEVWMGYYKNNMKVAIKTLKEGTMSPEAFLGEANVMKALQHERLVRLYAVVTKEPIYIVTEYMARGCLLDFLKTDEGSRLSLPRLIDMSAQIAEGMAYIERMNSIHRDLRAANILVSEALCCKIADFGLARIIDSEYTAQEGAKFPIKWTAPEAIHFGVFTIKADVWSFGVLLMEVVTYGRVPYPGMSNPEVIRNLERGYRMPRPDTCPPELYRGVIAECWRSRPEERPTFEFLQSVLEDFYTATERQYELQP
# Serine/threonine-protein kinase Nek4, sequence (P51957 whole entry): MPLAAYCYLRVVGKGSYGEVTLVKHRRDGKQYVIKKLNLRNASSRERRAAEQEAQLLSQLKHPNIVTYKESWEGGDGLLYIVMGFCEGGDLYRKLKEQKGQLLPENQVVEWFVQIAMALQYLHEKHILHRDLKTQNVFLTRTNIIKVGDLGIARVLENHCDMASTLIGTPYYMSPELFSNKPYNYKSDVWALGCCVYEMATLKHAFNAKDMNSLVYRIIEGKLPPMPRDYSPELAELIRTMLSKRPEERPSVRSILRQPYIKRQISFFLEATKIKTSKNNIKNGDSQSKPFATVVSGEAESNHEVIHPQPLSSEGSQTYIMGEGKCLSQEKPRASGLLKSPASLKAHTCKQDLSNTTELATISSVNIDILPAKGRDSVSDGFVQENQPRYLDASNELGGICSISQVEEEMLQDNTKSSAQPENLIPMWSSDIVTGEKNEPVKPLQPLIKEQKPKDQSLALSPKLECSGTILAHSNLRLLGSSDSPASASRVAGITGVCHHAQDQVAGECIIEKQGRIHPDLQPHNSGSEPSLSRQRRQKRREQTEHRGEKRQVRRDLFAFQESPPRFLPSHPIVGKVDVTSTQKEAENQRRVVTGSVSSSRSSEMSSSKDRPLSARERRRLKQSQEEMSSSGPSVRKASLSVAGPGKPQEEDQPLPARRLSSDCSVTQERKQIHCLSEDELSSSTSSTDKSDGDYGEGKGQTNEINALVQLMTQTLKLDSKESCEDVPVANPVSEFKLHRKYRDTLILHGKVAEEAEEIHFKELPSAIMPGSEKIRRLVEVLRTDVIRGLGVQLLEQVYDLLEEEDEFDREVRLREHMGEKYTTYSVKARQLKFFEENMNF
# Proto-oncogene tyrosine-protein kinase receptor Ret, sequence (P07949 whole entry): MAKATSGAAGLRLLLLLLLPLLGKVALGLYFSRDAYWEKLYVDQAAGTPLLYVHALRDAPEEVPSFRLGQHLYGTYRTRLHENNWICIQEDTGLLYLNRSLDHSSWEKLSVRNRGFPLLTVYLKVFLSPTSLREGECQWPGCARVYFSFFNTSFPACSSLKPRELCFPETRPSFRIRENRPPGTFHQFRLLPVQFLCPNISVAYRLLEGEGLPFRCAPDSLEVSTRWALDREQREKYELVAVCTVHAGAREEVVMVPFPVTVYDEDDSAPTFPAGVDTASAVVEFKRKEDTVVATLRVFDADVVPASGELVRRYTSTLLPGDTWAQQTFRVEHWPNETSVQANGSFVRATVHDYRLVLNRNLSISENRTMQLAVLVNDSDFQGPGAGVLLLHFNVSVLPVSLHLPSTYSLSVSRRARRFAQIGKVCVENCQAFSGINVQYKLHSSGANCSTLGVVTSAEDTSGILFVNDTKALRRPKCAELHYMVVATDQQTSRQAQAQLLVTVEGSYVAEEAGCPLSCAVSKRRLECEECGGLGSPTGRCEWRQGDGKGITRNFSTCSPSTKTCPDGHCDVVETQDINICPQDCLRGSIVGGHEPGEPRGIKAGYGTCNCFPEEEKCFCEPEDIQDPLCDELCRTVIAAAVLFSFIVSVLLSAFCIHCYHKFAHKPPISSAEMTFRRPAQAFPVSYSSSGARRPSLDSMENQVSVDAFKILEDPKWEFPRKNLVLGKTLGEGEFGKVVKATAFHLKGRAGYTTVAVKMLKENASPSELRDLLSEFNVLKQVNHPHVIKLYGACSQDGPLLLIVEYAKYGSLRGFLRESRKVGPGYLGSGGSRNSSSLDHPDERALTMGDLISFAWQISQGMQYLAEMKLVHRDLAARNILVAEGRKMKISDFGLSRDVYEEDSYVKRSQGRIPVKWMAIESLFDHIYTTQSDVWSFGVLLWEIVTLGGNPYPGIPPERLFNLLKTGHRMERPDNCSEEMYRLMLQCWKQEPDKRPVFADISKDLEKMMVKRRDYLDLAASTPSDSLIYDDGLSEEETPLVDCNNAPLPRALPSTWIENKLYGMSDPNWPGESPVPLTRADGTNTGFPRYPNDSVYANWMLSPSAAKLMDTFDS
# 5'-AMP-activated protein kinase catalytic subunit alpha-1, sequence (Q13131 whole entry): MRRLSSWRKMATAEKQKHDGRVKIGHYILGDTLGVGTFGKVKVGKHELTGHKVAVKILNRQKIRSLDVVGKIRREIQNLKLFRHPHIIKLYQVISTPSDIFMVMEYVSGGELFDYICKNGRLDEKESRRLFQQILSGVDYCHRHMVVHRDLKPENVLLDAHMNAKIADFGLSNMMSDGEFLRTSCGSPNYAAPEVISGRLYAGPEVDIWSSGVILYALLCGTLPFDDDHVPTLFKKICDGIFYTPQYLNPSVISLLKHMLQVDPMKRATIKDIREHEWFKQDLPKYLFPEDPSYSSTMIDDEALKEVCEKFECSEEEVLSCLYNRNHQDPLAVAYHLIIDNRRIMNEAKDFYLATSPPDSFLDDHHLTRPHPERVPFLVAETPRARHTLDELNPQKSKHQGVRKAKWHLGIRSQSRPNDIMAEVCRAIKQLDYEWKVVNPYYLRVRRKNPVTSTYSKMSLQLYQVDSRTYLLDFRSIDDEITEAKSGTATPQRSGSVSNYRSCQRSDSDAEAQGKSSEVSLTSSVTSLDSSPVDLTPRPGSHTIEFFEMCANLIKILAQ
structure (smiles),measurement,setting,value
C=CCNC1=C(Cl)C(=O)c2ccccc2C1=O,AC50,[1],> 70 µM (inactive)
same,AC50,[2],> 70 µM (inactive)
same,AC50,[3],735 nM (active)
CS(=O)(=O)c1ccc2c(c1)SC1=NC(=O)/C(=C/c3ccc(O)c(O)c3)C(=N)N12,IC50,Aminopeptidase N,51.2 µM (active)
same,IC50,[4],38.1 µM (active)
CCOC(=O)C(C(=O)OCC)c1cc(Br)c2noc3c2c1C(=O)c1ccccc1-3,EC50,Streptococcus,> 150 µM (not active)
CN(C)c1ccc(-c2nnc(-c3cccs3)o2)cc1,IC50,CHO-K1,> 66.2 µM (inactive)
COc1ccc(C(=O)Nc2n[nH]c3ccc(-c4cn(Cc5ccccc5)nn4)cc23)cc1OC,Ki,[5],126 nM (active)
same,Ki,[6],1.26 µM (active)
same,Ki,[7],63.1 nM (active)
same,Ki,[8],126 nM (active)
same,Ki,Aurora kinase A,398 nM (active)
same,Ki,[9],> 10 µM (inactive)
same,Ki,[10],1.26 µM (active)
same,Ki,[11],12.6 nM (active)
same,Ki,[12],1 µM (active)
same,Ki,[13],50.1 nM (active)
same,Ki,[14],6.31 µM (active)
same,Ki,[15],158 nM (active)
